The record followed here is US20120071397A1, “Methods for Hematopoietic Stem Cell Transplantation” (University of Southern California, priority 2010, published 2012).

The test system of the experiment is C57Bl/6 mice transplanted after myeloablation by total body irradiation (TBI). The experiment can be described thus: Survival of mice after syngeneic bone marrow transplant following myeloablation by total body irradiation, with suspected norovirus infection. The format is in vivo. Particulars: 500 μg/kg/day subcutaneous, FIG. 1. As to the method: FIG. 1. C57Bl/6 mice (n=40/group) were transplanted after myeloablation by total body irradiation (TBI) from Saline or A(1-7) treated donors and received saline or A(1-7) after transplant.
[…] mice underwent […] in split doses separated by 3 hours. Two hours after TBI, the mice received 2×10^6 syngeneic bone marrow cells by intravenous injection. For treatment, either donors (14 days prior to donation), recipients (starting on the day of transplant) or both received 500 μg/kg/day A(1-7) by subcutaneous injection During bone marrow transplant (BMT), recipients are immune suppressed due to myeloablation. Mice are normally kept in pathogen-free environments during BMT to reduce mortality due to infection.

In the case of “Asp-Arg-Val-Tyr-Ile-His-Pro (DRVYIHP) [A(1-7)]”, the survival result is “all surviving” (both donor and recipient treated); “improved survival” (treatment of either donor (14 days prior to donation), recipient (starting on day of transplant) or both).
